IC50 data for twelve molecules are collected here from patent publication US20220177462A1, “SUBSTITUTED HETEROCYCLIC AMIDE COMPOUND AND PREPARATION METHOD THEREFOR AND PHARMACEUTICAL USE THEREOF” (GENFLEET THERAPEUTICS (SHANGHAI) INC., priority 2019, published 2022).

pIC50: −log10 of the molar value. Where two headings read alike, the source gives them in different places.

One test has as its system U937 cells. As to the kind of experiment: Inhibitory activity against programmed necroptosis of U937 cells induced by TNF-α. In kind it is cell-based, human. On the procedure:
The U937 cell strain which was used in the following Testing Examples was derived from ATCC, No.: CRL-1593.2, batch No.: 63479999, culture medium: RPMI-1640+10% FBS.
The compound was dissolved in DMSO to prepare a 10 mM stock solution. The stock solution was diluted in 3.16 folds with DMSO to a series of gradient concentrations. Then, the resultant solution was diluted in 250 folds with a culture medium to prepare a working solution. The U937 cells were inoculated in a 384-well plate at 5000/well. The compound at respective concentration was added to each of the cells, and was mixed with the cells homogeneously. 100 ng/ml human TNF-α and 25 μM Q-VD-Oph were added simultaneously to induce programmed necroptosis of the cells. The final concentration of DMSO was 2%. The cells were placed in the incubator at 37° C. and 5% CO2 for further culture of 48 hours. Celltiter-Glo reagent was used for detection. After adequate pyrolysis reaction, the chemiluminescence readout value was recorded by a microplate reader. The survival rate was calculated from the detection results using the equation as follows: SR (%)=(RLU compound−RLU blank)/(RLU high control−RLU blank)×100%. The survival rate was plotted against the final concentration of respective compound using a 4-parameter fitting to calculate the inhibitory IC50 of the compound against programmed necroptosis of cells induced by TNF-a.

Another test deals with L929 cells. As to the kind of experiment: Inhibitory activity against programmed necroptosis of L929 cells induced by TNF-α. In kind it is cell-based. Particulars: Mus musculus, 30 ng/ml murine TNF-α and 15 μM Z-VAD, 6 hours, CellTiter-Glo survival rate, read-out: L929 AbIC50. The procedure:
The compound was dissolve in DMSO to prepare a 10 mM stock solution. The stock solution was diluted in 3.16 folds with DMSO to a series of gradient concentrations. Then, the resultant solution was diluted in 100 folds with a culture medium to prepare a working solution. The L929 cells were inoculated in a 384-well plate at 10000/well. The compound at respective concentration was added to each of the wells, and was mixed with the cells homogeneously. 30 ng/ml murine TNF-α and 15 μM Z-VAD were added simultaneously to induce programmed necroptosis of the cells. The final concentration of DMSO was 2%. The cells were placed in an incubator at 37° C. and 5% CO2 for further culture of 6 hours. CellTiter-Glo reagent was used for detection. After adequate pyrolysis reaction, the chemiluminescence readout value was recorded by a microplate reader. The survival rate was calculated from the detection results using the equation as follows: SR (%)=(RLU compound −RLU blank)/(RLU high control−RLU blank)×100%. The survival rate was plotted against the final concentration of respective compound using a 4-parameter fitting to calculate the inhibitory IC50 of the compound against programmed necroptosis of cells induced by TNF-a.

The target in the next test is T1, RIPK1 enzyme (Homo sapiens, UniProt Q13546).
T1 construct: purchased Eurofins 16-022
T1 sequence (Q13546 1-671): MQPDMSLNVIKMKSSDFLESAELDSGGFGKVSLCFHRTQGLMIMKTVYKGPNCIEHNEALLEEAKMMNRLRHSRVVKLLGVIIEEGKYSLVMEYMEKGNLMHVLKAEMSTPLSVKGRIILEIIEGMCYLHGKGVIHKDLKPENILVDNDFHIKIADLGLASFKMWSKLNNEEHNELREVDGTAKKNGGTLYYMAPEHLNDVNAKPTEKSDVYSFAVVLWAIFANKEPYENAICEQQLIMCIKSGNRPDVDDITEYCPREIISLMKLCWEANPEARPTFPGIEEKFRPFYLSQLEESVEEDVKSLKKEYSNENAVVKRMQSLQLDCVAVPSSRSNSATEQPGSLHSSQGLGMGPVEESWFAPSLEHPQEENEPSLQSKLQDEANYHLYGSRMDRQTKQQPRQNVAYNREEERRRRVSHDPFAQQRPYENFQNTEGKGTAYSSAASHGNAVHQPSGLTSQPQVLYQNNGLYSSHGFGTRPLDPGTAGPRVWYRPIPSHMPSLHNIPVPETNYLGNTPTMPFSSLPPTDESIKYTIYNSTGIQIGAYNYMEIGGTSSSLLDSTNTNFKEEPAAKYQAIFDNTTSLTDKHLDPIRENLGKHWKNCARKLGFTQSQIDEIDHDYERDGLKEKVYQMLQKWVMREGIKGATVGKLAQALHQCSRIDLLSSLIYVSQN
As to the kind of experiment: Inhibitory activity of the compounds against RIPK1 enzyme (33P-ATP, MBP substrate). Particulars: 36 nM RIPK1, 0.33 mg/ml MBP, 155 μM P33-labeled ATP, room temperature 2 hours. The test is classed as biochemical. The procedure:
The test compound was dissolved in DMSO to prepare a 10 mM stock solution. The stock solution was diluted in 3.16 folds with DMSO to a series of gradient concentrations. Then, the resultant solution was diluted in 50 folds with MOPS buffer pH 7.0 to prepare a working solution. The working solution was mixed with 36 nM RIPK1 (final concentration) and 0.33 mg/ml substrate MBP homogeneously. Thereafter, 10 mM magnesium ion and 155 μM P^33 isotopically labeled ATP were added for the reaction. The final concentration of DMSO was 2%. After the reaction was carried out at room temperature for 2 hours phosphoric acid was added to terminate the reaction. The final reaction system was tested using a liquid scintillation counter after treatment. The result obtained by subtracting a blank control from the tested value was converted to activity percentage as compared to the readout value of control group. The activity percentage was plotted against the final concentration of respective compound using a 4-parameter fitting to obtain the inhibitory IC50 of the compound against RIPK1 enzyme.

[1] abbreviates: Homo sapiens, U-937, 48 h, 100 ng/ml human TNF-α and 25 μM Q-VD-Oph, 48 hours, CellTiter-Glo survival rate; read-out: U937 IC50.

Consider `COc1ncc(-c2ccc3nc(N)sc3c2)cc1C(=O)NCc1cc(F)cc(F)c1OCC(C)C` [Compound Z49, 5-(2-aminobenzo[d]thiazol-6-yl)-N-(3,5-difluoro-2-isobutoxybenzyl)-2-methoxynicotinamide], for which the pIC50 in the test on U937 cells (setting [1]) is 8.22; in the test with L929 cells, 7.43.

In the case of `Nc1nc2ccc(-c3cnc4c(c3)C(=O)N(Cc3cc(F)cc(F)c3OC3CC3)CC4)cc2s1` [Compound Z64, 3-(2-aminobenzo[d]thiazol-6-yl)-6-(2-cyclopropoxy-3,5-difluorobenzyl)-7,8-dihydro-1,6-naphthyridin-5(6H)-one], the pIC50 was 7.47 at RIPK1 enzyme, 8.40 in the test on U937 cells (setting [1]) and 8.52 in the test on L929 cells.

For the molecule `Cn1ncc2c(-c3ccn4nc(N)nc4c3)cc(C(=O)N3CCCC(Cc4ccc(F)cc4)C3)cc21` (stereo not drawn) [Compound Z29, (4-(2-amino-[1,2,4]triazolo[1,5-a]pyridin-7-yl)-1-methyl-1H-indazol-6-yl)(3-(4-fluorobenzyl)piperidin-1-yl)methanone], the values for the pIC50 in the test on U937 cells (setting [1]) and in the test on L929 cells were 8.15 and 7.92, respectively.

As to `Cn1ncc2c(-c3ccn4nc(N)nc4c3)cc(C(=O)NCc3cc(F)ccc3OC3CCCC3)cc21` [Compound Z31, 4-(2-amino-[1,2,4]triazolo[1,5-a]pyridin-7-yl)-N-(2-(cyclopentyloxy)-5-fluorobenzyl)-1-methyl-1H-indazole-6-carboxamide], the pIC50 in the test with U937 cells (setting [1]) was 8.70; with L929 cells, 7.39.

Regarding `Nc1nc2ccc(-c3cnc4c(c3)C(=O)N(Cc3cc(C(F)(F)F)ccc3F)CC4)cc2s1` [Compound Z65, 3-(2-aminobenzo[d]thiazol-6-yl)-6-(2-fluoro-5-(trifluoromethyl)benzyl)-7,8-dihydro-1,6-naphthyridin-5(6H)-one], the pIC50 at RIPK1 enzyme was 7.37; in the test on U937 cells (setting [1]), 7.32.

As to `C[C@H](c1ccccc1OC(F)(F)F)N1CCc2ncc(-c3ccc4nc(N)sc4c3)cc2C1=O` (single isomer, unassigned) [Compound Z54-2], the results for the pIC50 against RIPK1 enzyme and in the test with L929 cells were 7.29 and above 8.52, respectively. Also, in the test on U937 cells (Homo sapiens, U-937, 48 h, read-out: U937 IC50(μM), 100 ng/ml human TNF-α and 25 μM Q-VD-Oph, 48 hours, CellTiter-Glo survival rate), the IC50 stood at 0.001 µM.

For `COc1ncc(-c2ccc3nc(N)sc3c2)cc1C(=O)NC(C)c1ccccc1OC(F)(F)F` (single isomer, unassigned) [Compound Z1-2], the pIC50 at RIPK1 enzyme is 7.85; in the test on U937 cells (100 ng/ml human TNF-α and 25 μM Q-VD-Oph, 48 hours, CellTiter-Glo survival rate; read-out: U937 IC50), 7.55; in the test on L929 cells it was 8.22.

`COc1ncc(-c2ccc3nc(N)sc3c2)cc1C(=O)N1CCC[C@H](Cc2ccc(F)cc2)C1` [Compound Z17-1]: the pIC50 in the test on U937 cells (setting [1]) was 8.05; with L929 cells, 8.00.

On to `COc1ncc(-c2ccc3nc(NC(=O)C4CC4)sc3c2)cc1C(=O)N[C@@H](C)c1ccccc1OC(F)(F)F` (single isomer, unassigned) [Compound Z6-1], for which the pIC50 was 7.22 against RIPK1 enzyme and 8.52 in the test with U937 cells (setting [1]).

In the case of `COc1ncc(-c2ccc3nc(N)sc3c2)cc1C(=O)NCc1ccccc1OC(F)(F)F` [Compound Z2, 5-(2-aminobenzo[d]thiazol-6-yl)-2-methoxy-N-(2-(trifluoromethoxy)benzyl)nicotinamide], the pIC50 on RIPK1 enzyme was 7.64; in the test on U937 cells (setting [1]) it was 7.42.

Turning to `COc1ncc(-c2ccc3nc(NC(=O)C4CC4)sc3c2)cc1C(=O)NC(C)c1ccccc1OC(F)(F)F` (single isomer, unassigned) [Compound Z6, 5-(2-(cyclopropylcarbonylamino)benzo[d]thiazol-6-yl)-2-methoxy-N-(1-(2-(trifluoromethoxy)phenyl)ethyl)nicotinamide], the pIC50 against RIPK1 enzyme was 7.44; in the test with U937 cells (setting [1]), 8.10.

As for `COc1ncc(-c2ccc3nc(NC(C)=O)sc3c2)cc1C(=O)NC(C)c1ccccc1OC(F)(F)F` (single isomer, unassigned) [Compound Z5-1], the pIC50 against RIPK1 enzyme was 7.55; in the test with U937 cells (read-out: U937 IC50; 100 ng/ml human TNF-α and 25 μM Q-VD-Oph, 48 hours, CellTiter-Glo survival rate), 8.30.
